Results as given in patent US20260070945A1, “MACROCYCLIC IMMUNOMODULATORS” (Bristol-Myers Squibb Company, priority 2022, published 2026).
Where a SMILES comes first, the peptide text is derived from it. Bridges are numbered along the chain shown (N, C = ends). [ ]: non-standard residue; d: D form. The star is where a group is joined. ξ: configuration not given here. Phe(4-COOH) = N[C@@H](Cc1ccc(C(=O)O)cc1)C(=O)O; Bip = N[C@@H](Cc1ccc(-c2ccccc2)cc1)C(=O)O; Phe(3-Me) = Cc1cccc(C[C@H](N)C(=O)O)c1; Phe(4-F) = N[C@@H](Cc1ccc(F)cc1)C(=O)O; Val(3-OH) = CC(C)(O)[C@H](N)C(=O)O; Cha = N[C@@H](CC1CCCCC1)C(=O)O; Thr(3ξ) = CC(O)[C@H](N)C(=O)O; Carboxymethyl = O=C(O)C*; NMeA = CN[C@@H](C)C(=O)O; Aun = NCCCCCCCCCCC(=O)O; Dab = NCC[C@H](N)C(=O)O; AEEA = NCCOCCOCC(=O)O

Molecular target: T1, PD-1/PD-L1 interaction (PE-labeled human PD-L1-Ig binding to Jurkat cell line over-expressing human PD-1) (Homo sapiens, UniProt Q15116)
T1 construct: expressed in transfected cells; host or cells: Jurkat
Assay: Jurkat-PD-1 Cell Binding High-Content Screening Assay (CBA)
Conditions: PE-labeled PD-L1-Ig 20 nM final, Jurkat-hPD-1 cells; read-out: Jurkat HPD1 PDL1 IC50
In short: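 Cells 8×10^3/well, DMEM + 10% FCS; cpd 2 h, 37 °C; PE–PD-L1-Ig 20 nM final, 1 h; PFA fix + Hoechst 33342, 3× dPBS wash; high-content imager.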

T1 sequence (Q15116 25-288): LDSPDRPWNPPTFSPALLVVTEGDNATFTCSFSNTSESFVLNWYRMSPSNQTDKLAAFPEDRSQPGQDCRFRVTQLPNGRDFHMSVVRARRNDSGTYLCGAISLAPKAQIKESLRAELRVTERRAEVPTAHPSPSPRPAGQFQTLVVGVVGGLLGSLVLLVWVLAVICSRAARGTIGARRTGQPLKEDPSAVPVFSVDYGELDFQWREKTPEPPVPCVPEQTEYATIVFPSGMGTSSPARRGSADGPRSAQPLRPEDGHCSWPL

| Structure (SMILES) | IC50 [nM] |
| --- | --- |
| Cc1cccc(C[C@@H]2NC(=O)[C@H](CC(=O)O)NC(=O)[C@H](Cc3ccc(C(=O)O)cc3)NC(=O)[C@H](CCN)NC(=O)CSC[C@@H](C(=O)N[C@@H](CCN)C(=O)NCCOCCOCC(=O)NCCCCCCCCCCC(=O)O)NC(=O)[C@H](CCC(=O)O)NC(=O)[C@H](C(C)O)NC(=O)[C@H](CC3CCCCC3)NC(=O)[C@H](CCN)NC(=O)[C@@H](CC(C)C)NC(=O)[C@H](C)N(C)C(=O)[C@H](Cc3ccc(C(=O)O)cc3)NC(=O)[C@H](Cc3ccc(-c4ccccc4)cc3)NC(=O)[C@H](Cc3ccc(C(=O)O)cc3)NC2=O)c1 (stereo partly drawn) [Example 2552] ({CH2CO}-[Dab][Phe(4-COOH)]D[Phe(3-Me)][Phe(4-COOH)][Bip][Phe(4-COOH)][NMeA][dL][Dab][Cha][Thr(3ξ)]EC[Dab][AEEA][Aun]-OH; thioether N-14) | 18.7 |
| Cc1cccc(C[C@@H]2NC(=O)[C@H](CC(=O)O)NC(=O)[C@H](Cc3ccc(OCC(=O)O)cc3)NC(=O)[C@H](C(C)O)NC(=O)CSC[C@@H](C(=O)N[C@@H](CCN)C(=O)NCCOCCOCC(=O)NCCCCCCCCCCC(=O)O)NC(=O)[C@H](CCC(=O)O)NC(=O)[C@H](C(C)C)NC(=O)[C@H](CC3CCCCC3)NC(=O)[C@H](CCN)NC(=O)[C@@H](CC(C)C)NC(=O)[C@H](C)N(C)C(=O)[C@H](Cc3ccc(C(=O)O)cc3)NC(=O)[C@H](Cc3ccc(-c4ccccc4)cc3)NC(=O)[C@H](Cc3ccc(C(=O)O)cc3)NC2=O)c1 (stereo partly drawn) [Example 2553] ({CH2CO}-[Thr(3ξ)]Y(Carboxymethyl)D[Phe(3-Me)][Phe(4-COOH)][Bip][Phe(4-COOH)][NMeA][dL][Dab][Cha]VEC[Dab][AEEA][Aun]-OH; thioether N-14) | 4.8 |
| Cc1cccc(C[C@@H]2NC(=O)[C@H](CC(=O)O)NC(=O)[C@H](Cc3ccc(C(=O)O)cc3)NC(=O)[C@H](CCN)NC(=O)CSC[C@@H](C(=O)N[C@@H](CCN)C(=O)NCCCCCCCCCCC(=O)O)NC(=O)[C@H](Cc3cnc[nH]3)NC(=O)[C@H](C(C)(C)O)NC(=O)[C@H](CC3CCCCC3)NC(=O)[C@H](CCN)NC(=O)[C@@H](CC(C)C)NC(=O)[C@H](C)N(C)C(=O)[C@H](Cc3ccc(C(=O)O)cc3)NC(=O)[C@H](Cc3ccc(-c4ccccc4)cc3)NC(=O)[C@H](Cc3ccc(C(=O)O)cc3)NC2=O)c1 [Example 2554] ({CH2CO}-[Dab][Phe(4-COOH)]D[Phe(3-Me)][Phe(4-COOH)][Bip][Phe(4-COOH)][NMeA][dL][Dab][Cha][Val(3-OH)]HC[Dab][Aun]-OH; thioether N-14) | 8.6 |
| Cc1cccc(C[C@@H]2NC(=O)[C@H](CC(=O)O)NC(=O)[C@H](Cc3ccc(C(=O)O)cc3)NC(=O)[C@H](C(C)O)NC(=O)CSC[C@@H](C(=O)N[C@@H](CCN)C(=O)NCCOCCOCC(=O)NCCCCCCCCCCC(=O)O)NC(=O)[C@H](CCC(=O)O)NC(=O)[C@H](C(C)O)NC(=O)[C@H](CC3CCCCC3)NC(=O)[C@H](CCN)NC(=O)[C@@H](CC(C)C)NC(=O)[C@H](C)N(C)C(=O)[C@H](Cc3ccc(C(=O)O)cc3)NC(=O)[C@H](Cc3ccc(-c4ccccc4)cc3)NC(=O)[C@H](Cc3ccc(C(=O)O)cc3)NC2=O)c1 (stereo partly drawn) [Example 2555] ({CH2CO}-[Thr(3ξ)][Phe(4-COOH)]D[Phe(3-Me)][Phe(4-COOH)][Bip][Phe(4-COOH)][NMeA][dL][Dab][Cha][Thr(3ξ)]EC[Dab][AEEA][Aun]-OH; thioether N-14) | 20.2 |
| Cc1cccc(C[C@@H]2NC(=O)[C@H](CC(=O)O)NC(=O)[C@H](Cc3ccc(C(=O)O)cc3)NC(=O)[C@H](C(C)O)NC(=O)CSC[C@@H](C(=O)N[C@@H](CCN)C(=O)NCCOCCOCC(=O)NCCCCCCCCCCC(=O)O)NC(=O)[C@H](CCC(=O)O)NC(=O)[C@H](CO)NC(=O)[C@H](CC3CCCCC3)NC(=O)[C@H](CCN)NC(=O)[C@@H](CC(C)C)NC(=O)[C@H](C)N(C)C(=O)[C@H](Cc3ccc(C(=O)O)cc3)NC(=O)[C@H](Cc3ccc(-c4ccccc4)cc3)NC(=O)[C@H](Cc3ccc(C(=O)O)cc3)NC2=O)c1 (stereo partly drawn) [Example 2556] ({CH2CO}-[Thr(3ξ)][Phe(4-COOH)]D[Phe(3-Me)][Phe(4-COOH)][Bip][Phe(4-COOH)][NMeA][dL][Dab][Cha]SEC[Dab][AEEA][Aun]-OH; thioether N-14) | 41.2 |
| Cc1cccc(C[C@@H]2NC(=O)[C@H](CC(=O)O)NC(=O)[C@H](Cc3ccc(C(=O)O)cc3)NC(=O)[C@H](C(C)O)NC(=O)CSC[C@@H](C(=O)N[C@@H](CCN)C(=O)NCCOCCOCC(=O)NCCCCCCCCCCC(=O)O)NC(=O)[C@H](CC(=O)O)NC(=O)[C@H](C(C)C)NC(=O)[C@H](CC3CCCCC3)NC(=O)[C@H](CCN)NC(=O)[C@@H](CC(C)C)NC(=O)[C@H](C)N(C)C(=O)[C@H](Cc3ccc(C(=O)O)cc3)NC(=O)[C@H](Cc3ccc(-c4ccccc4)cc3)NC(=O)[C@H](Cc3ccc(C(=O)O)cc3)NC2=O)c1 (stereo partly drawn) [Example 2557] ({CH2CO}-[Thr(3ξ)][Phe(4-COOH)]D[Phe(3-Me)][Phe(4-COOH)][Bip][Phe(4-COOH)][NMeA][dL][Dab][Cha]VDC[Dab][AEEA][Aun]-OH; thioether N-14) | 0.7 |
| Cc1cccc(C[C@@H]2NC(=O)[C@H](CC(=O)O)NC(=O)[C@H](Cc3ccc(OCC(=O)O)cc3)NC(=O)[C@H](C(C)O)NC(=O)CSC[C@@H](C(=O)N[C@@H](CCN)C(=O)NCCOCCOCC(=O)NCCCCCCCCCCC(=O)O)NC(=O)[C@H](CC(=O)O)NC(=O)[C@H](C(C)C)NC(=O)[C@H](CC3CCCCC3)NC(=O)[C@H](CCN)NC(=O)[C@@H](CC(C)C)NC(=O)[C@H](C)N(C)C(=O)[C@H](Cc3ccc(OCC(=O)O)cc3)NC(=O)[C@H](Cc3ccc(-c4ccccc4)cc3)NC(=O)[C@H](Cc3ccc(OCC(=O)O)cc3)NC2=O)c1 (stereo partly drawn) [Example 2558] ({CH2CO}-[Thr(3ξ)]Y(Carboxymethyl)D[Phe(3-Me)]Y(Carboxymethyl)[Bip]Y(Carboxymethyl)[NMeA][dL][Dab][Cha]VDC[Dab][AEEA][Aun]-OH; thioether N-14) | 11.6 |
| Cc1cccc(C[C@@H]2NC(=O)[C@H](CC(=O)O)NC(=O)[C@H](Cc3ccc(OCC(=O)O)cc3)NC(=O)[C@H](Cc3ccc(F)cc3)NC(=O)CSC[C@@H](C(=O)N[C@@H](CCN)C(=O)NCCOCCOCC(=O)NCCCCCCCCCCC(=O)O)NC(=O)[C@H](CC(=O)O)NC(=O)[C@H](C(C)C)NC(=O)[C@H](CC3CCCCC3)NC(=O)[C@H](CCN)NC(=O)[C@@H](CC(C)C)NC(=O)[C@H](C)N(C)C(=O)[C@H](Cc3ccc(OCC(=O)O)cc3)NC(=O)[C@H](Cc3ccc(-c4ccccc4)cc3)NC(=O)[C@H](Cc3ccc(OCC(=O)O)cc3)NC2=O)c1 [Example 2559] ({CH2CO}-[Phe(4-F)]Y(Carboxymethyl)D[Phe(3-Me)]Y(Carboxymethyl)[Bip]Y(Carboxymethyl)[NMeA][dL][Dab][Cha]VDC[Dab][AEEA][Aun]-OH; thioether N-14) | 28.6 |
| Cc1cccc(C[C@@H]2NC(=O)[C@H](CC(=O)O)NC(=O)[C@H](Cc3ccc(OCC(=O)O)cc3)NC(=O)[C@H](Cc3ccc(F)cc3)NC(=O)CSC[C@@H](C(=O)N[C@@H](CCN)C(=O)NCCOCCOCC(=O)NCCCCCCCCCCC(=O)O)NC(=O)[C@H](CCC(=O)O)NC(=O)[C@H](C(C)C)NC(=O)[C@H](CC3CCCCC3)NC(=O)[C@H](CCN)NC(=O)[C@@H](CC(C)C)NC(=O)[C@H](C)N(C)C(=O)[C@H](Cc3ccc(OCC(=O)O)cc3)NC(=O)[C@H](Cc3ccc(-c4ccccc4)cc3)NC(=O)[C@H](Cc3ccc(OCC(=O)O)cc3)NC2=O)c1 [Example 2560] ({CH2CO}-[Phe(4-F)]Y(Carboxymethyl)D[Phe(3-Me)]Y(Carboxymethyl)[Bip]Y(Carboxymethyl)[NMeA][dL][Dab][Cha]VEC[Dab][AEEA][Aun]-OH; thioether N-14) | 2.1 |
